The source made the active and inactive calls. The rule behind the calls is not given here.
Legend:
[1] = target: T1, Protein cereblon/Stimulator of interferon genes protein (Mus musculus) (UniProt Q3TBT3+Q8C7D2); experiment: In vivo inhibition of STING signaling pathway in C57BL/6J mouse assessed as inhibition of cisplatin-induced ISG15 mRNA expression in kidney at 25 to 50 mg/kg by qPCR analysis; type: functional, organism-based; settings: dose 25-50 mg/kg
[2] = target: T2, Stimulator of interferon genes protein (Mus musculus) (UniProt Q3TBT3); experiment: Inhibition of STING in mouse RAW264.7 cells assessed as reduction in DMXAA-induced IL-6 mRNA expression at 5 to 20 uM pretreated for 1 hr followed by stimulation with DMXAA for 24 hrs by qRT-CPR analysis; type: cell-based; settings: dose 5-20 µM, time 25.0 hrs
T2 sequence (whole entry): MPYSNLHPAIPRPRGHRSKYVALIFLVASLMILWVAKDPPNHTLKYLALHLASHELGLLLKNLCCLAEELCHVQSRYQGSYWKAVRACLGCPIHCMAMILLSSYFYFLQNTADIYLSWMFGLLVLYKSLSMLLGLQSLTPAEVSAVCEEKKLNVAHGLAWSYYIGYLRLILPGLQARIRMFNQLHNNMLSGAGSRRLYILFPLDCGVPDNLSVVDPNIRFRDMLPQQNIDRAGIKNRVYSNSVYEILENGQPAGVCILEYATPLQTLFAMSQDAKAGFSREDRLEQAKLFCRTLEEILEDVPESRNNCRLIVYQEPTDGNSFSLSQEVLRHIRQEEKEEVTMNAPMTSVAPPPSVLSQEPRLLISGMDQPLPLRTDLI

[3] = target: T3, Protein cereblon/Stimulator of interferon genes protein (Homo sapiens, UniProt Q96SW2+Q86WV6); experiment: PROTAC activity at CRBN/STING in human THP-1 cells assessed as induction of STING degradation incubated for 24 hrs by western blot analysis; type: cell-based
Target sequence in this assay (Q96SW2 whole entry): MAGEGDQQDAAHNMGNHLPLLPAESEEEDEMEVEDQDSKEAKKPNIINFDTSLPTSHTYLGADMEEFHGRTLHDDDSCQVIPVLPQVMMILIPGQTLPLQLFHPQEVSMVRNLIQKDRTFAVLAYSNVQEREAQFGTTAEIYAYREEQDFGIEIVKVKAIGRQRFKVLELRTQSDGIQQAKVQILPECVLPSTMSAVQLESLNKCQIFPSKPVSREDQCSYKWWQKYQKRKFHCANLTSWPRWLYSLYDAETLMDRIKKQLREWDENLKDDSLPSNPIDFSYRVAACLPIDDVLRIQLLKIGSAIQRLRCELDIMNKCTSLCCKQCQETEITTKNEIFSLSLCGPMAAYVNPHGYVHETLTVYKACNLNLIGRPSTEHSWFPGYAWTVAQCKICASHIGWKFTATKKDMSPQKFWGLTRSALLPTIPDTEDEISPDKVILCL
Target sequence in this assay (Q86WV6 whole entry): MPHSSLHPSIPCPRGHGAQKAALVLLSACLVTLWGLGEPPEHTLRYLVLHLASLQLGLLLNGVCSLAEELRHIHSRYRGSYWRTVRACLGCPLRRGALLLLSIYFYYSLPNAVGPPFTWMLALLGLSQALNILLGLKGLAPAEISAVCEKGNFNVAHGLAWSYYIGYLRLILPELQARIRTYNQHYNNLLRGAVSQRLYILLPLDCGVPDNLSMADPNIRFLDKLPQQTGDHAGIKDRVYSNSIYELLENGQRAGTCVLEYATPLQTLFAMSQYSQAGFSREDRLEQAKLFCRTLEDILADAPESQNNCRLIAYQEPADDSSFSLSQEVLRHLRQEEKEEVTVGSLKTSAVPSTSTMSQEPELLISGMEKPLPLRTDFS

[4] = target: T3, Protein cereblon/Stimulator of interferon genes protein; experiment: PROTAC activity at CRBN/STING in human THP-1 cells assessed as inhibition of cGAMP-induced IL-6 mRNA expression incubated for 1 hr followed by stimulation with cGAMP for 24 hrs by qRT-PCR analysis; type: cell-based; settings: dose 5-20 µM, time 25.0 hrs
Target sequence in this assay (Q86WV6 whole entry, looked up): as the sequence (Q86WV6 whole entry) above
Target sequence in this assay (Q96SW2 whole entry, looked up): as the sequence (Q96SW2 whole entry) above

[5] = target: T3, Protein cereblon/Stimulator of interferon genes protein; experiment: PROTAC activity at CRBN/STING in human THP-1 cells assessed as inhibition of cGAMP-induced ISG15 mRNA expression incubated for 1 hr followed by stimulation with cGAMP for 24 hrs by qRT-PCR analysis; type: cell-based; settings: dose 5-20 µM, time 25.0 hrs
Target sequence in this assay (Q86WV6 whole entry, looked up): as the sequence (Q86WV6 whole entry) above
Target sequence in this assay (Q96SW2 whole entry, looked up): as the sequence (Q96SW2 whole entry) above

Mus musculus [6] = experiment: Anti-inflammatory activity against C57BL/6J mouse assessed as inhibition of cisplatin-induced hepatic impairment by measuring restoration of gamma-GT activity at 25 to 50 mg/kg; type: functional, organism-based; settings: dose 25-50 mg/kg
Mus musculus [7] = experiment: Anti-inflammatory activity against cisplatin-induced acute kidney injury C57BL/6J mouse model assessed as decrease in kidney damage at 25 to 50 mg/kg by Hematoxylin-Eosin staining based microscopic analysis; type: functional, organism-based; settings: dose 25-50 mg/kg
[8] = target: Protein cereblon/Signal transducer and activator of transcription 3 (Homo sapiens) (UniProt P40763+Q96SW2); experiment: PROTAC activity at CRBN/STAT3 in human THP-1 cells assessed as induction of STAT3 degradation at 2.5 to 40 uM incubated for 24 hrs by western blot analysis; type: cell-based; settings: dose 2.5-40 µM
[9] = target: T3, Protein cereblon/Stimulator of interferon genes protein; experiment: PROTAC activity at CRBN/STING in human THP-1 cells assessed as induction of STING degradation at 10 uM incubated for 24 hrs followed by replacement with fresh medium without compound and measured after 24 hrs by western bot analysis; type: cell-based
Target sequence in this assay (Q86WV6 whole entry, looked up): as the sequence (Q86WV6 whole entry) above
Target sequence in this assay (Q96SW2 whole entry, looked up): as the sequence (Q96SW2 whole entry) above

[10] = target: T2, Stimulator of interferon genes protein (Mus musculus); experiment: Inhibition of STING in mouse RAW264.7 cells assessed as reduction in SR717-induced IRF3 phosphorylation at 0.3 to 20 uM pretreated for 1 hr followed by stimulation with SR717 for 24 hrs by western blot analysis; type: cell-based; settings: dose 0.3-20 µM, time 25.0 hrs
[11] = target: T1, Protein cereblon/Stimulator of interferon genes protein (Mus musculus); experiment: In vivo inhibition of STING signaling pathway in C57BL/6J mouse assessed as inhibition of cisplatin-induced IL-1 beta mRNA expression in kidney at 25 to 50 mg/kg by qPCR analysis; type: functional, organism-based; settings: dose 25-50 mg/kg
[12] = target: T3, Protein cereblon/Stimulator of interferon genes protein; experiment: PROTAC activity at CRBN/STING in human THP-1 cells assessed as induction of STING degradation at 10 uM by western blot analysis; type: cell-based; settings: time 3-36 hrs, TDE = time-dependent effect
Target sequence in this assay (Q86WV6 whole entry, looked up): as the sequence (Q86WV6 whole entry) above
Target sequence in this assay (Q96SW2 whole entry, looked up): as the sequence (Q96SW2 whole entry) above

[13] = target: T3, Protein cereblon/Stimulator of interferon genes protein; experiment: PROTAC activity at CRBN/STING in human THP-1 cells assessed as inhibition of cGAMP-induced IFN-beta mRNA expression incubated for 1 hr followed by stimulation with cGAMP for 24 hrs by qRT-PCR analysis; type: cell-based; settings: dose 5-20 µM, time 25.0 hrs
Target sequence in this assay (Q86WV6 whole entry, looked up): as the sequence (Q86WV6 whole entry) above
Target sequence in this assay (Q96SW2 whole entry, looked up): as the sequence (Q96SW2 whole entry) above

Mus musculus [14] = experiment: Anti-inflammatory activity against cisplatin-induced acute kidney injury C57BL/6J mouse model assessed as decrease in plasma uric acid level at 25 to 50 mg/kg; type: functional, organism-based; settings: dose 25-50 mg/kg
[15] = target: T2, Stimulator of interferon genes protein (Mus musculus); experiment: Inhibition of STING in mouse RAW264.7 cells assessed as reduction in DMXAA-induced TNF-alpha mRNA expression at 5 to 20 uM pretreated for 1 hr followed by stimulation with DMXAA for 24 hrs by qRT-CPR analysis; type: cell-based; settings: dose 5-20 µM, time 25.0 hrs
[16] = Stability of the compound in human plasma assessed as parent compound remaining at 400 ug/ml measured after 24 hrs by HPLC analysis; type: ADME, cell-free; settings: at 400 µg/mL, read-out: Stability
[17] = target: T3, Protein cereblon/Stimulator of interferon genes protein; experiment: PROTAC activity at CRBN/STING in human THP-1 cells assessed as inhibition of cGAMP-induced CXCL10 mRNA expression incubated for 1 hr followed by stimulation with cGAMP for 24 hrs by qRT-PCR analysis; type: cell-based; settings: dose 5-20 µM, time 25.0 hrs
Target sequence in this assay (Q86WV6 whole entry, looked up): as the sequence (Q86WV6 whole entry) above
Target sequence in this assay (Q96SW2 whole entry, looked up): as the sequence (Q96SW2 whole entry) above

[18] = Toxicity against cisplatin-induced acute kidney injury C57BL/6J mouse model assessed as decrease in body weight at 25 to 50 mg/kg; type: organism-based; settings: in vivo, dose 25-50 mg/kg
[19] = target: T1, Protein cereblon/Stimulator of interferon genes protein (Mus musculus); experiment: In vivo inhibition of STING signaling pathway in C57BL/6J mouse assessed as inhibition of cisplatin-induced TNF-alpha mRNA expression in kidney at 25 to 50 mg/kg by qPCR analysis; type: functional, organism-based; settings: dose 25-50 mg/kg
[20] = target: T2, Stimulator of interferon genes protein (Mus musculus); experiment: Inhibition of STING in mouse RAW264.7 cells assessed as reduction in SR717-induced TBK1 phosphorylation at 0.3 to 20 uM pretreated for 1 hr followed by stimulation with SR717 for 24 hrs by western blot analysis; type: cell-based; settings: dose 0.3-20 µM, time 25.0 hrs
[21] = target: T1, Protein cereblon/Stimulator of interferon genes protein (Mus musculus); experiment: In vivo inhibition of STING signaling pathway in C57BL/6J mouse assessed as inhibition of cisplatin-induced IL-6 mRNA expression in kidney at 25 to 50 mg/kg by qPCR analysis; type: functional, organism-based; settings: dose 25-50 mg/kg
[22] = target: T3, Protein cereblon/Stimulator of interferon genes protein; experiment: PROTAC activity at CRBN/STING in human THP-1 cells assessed as inhibition of cGAMP-induced IRF3 phosphorylation incubated for 24 hrs followed by stimulation with cGAMP for 24 hrs by western blot analysis; type: cell-based; settings: dose 0.3-20 µM, time 48.0 hrs
Mus musculus [23] = experiment: Anti-inflammatory activity against cisplatin-induced acute kidney injury C57BL/6J mouse model assessed as animal survival rate at 25 to 50 mg/kg measured at 72 hrs post-cisplatin administration (reference value: 66.7%); type: functional; settings: dose 25-50 mg/kg
[24] = target: T3, Protein cereblon/Stimulator of interferon genes protein; experiment: PROTAC activity at CRBN/STING in human THP-1 cells assessed as induction of STING degradation at 3 uM pretreated with lysosome inhibitor, bafilomycin for 1 hr followed by incubation with compound for 24 hrs by western blot analysis; type: cell-based

T1 sequence (Q8C7D2 whole entry, looked up, one chain of several): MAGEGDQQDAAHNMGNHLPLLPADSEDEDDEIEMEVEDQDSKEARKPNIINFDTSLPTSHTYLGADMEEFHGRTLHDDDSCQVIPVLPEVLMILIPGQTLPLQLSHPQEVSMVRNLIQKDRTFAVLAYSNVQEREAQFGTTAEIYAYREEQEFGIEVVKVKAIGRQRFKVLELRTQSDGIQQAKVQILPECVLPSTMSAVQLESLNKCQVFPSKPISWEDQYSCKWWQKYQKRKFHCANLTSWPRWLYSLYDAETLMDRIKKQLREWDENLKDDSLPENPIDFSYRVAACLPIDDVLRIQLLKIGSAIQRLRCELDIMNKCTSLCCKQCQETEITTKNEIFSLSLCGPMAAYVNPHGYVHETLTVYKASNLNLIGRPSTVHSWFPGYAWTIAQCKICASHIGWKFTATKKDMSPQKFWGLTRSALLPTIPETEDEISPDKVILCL
Chain of Protein cereblon/Signal transducer and activator of transcription 3 (Homo sapiens) (P40763 2-770 limits assumed): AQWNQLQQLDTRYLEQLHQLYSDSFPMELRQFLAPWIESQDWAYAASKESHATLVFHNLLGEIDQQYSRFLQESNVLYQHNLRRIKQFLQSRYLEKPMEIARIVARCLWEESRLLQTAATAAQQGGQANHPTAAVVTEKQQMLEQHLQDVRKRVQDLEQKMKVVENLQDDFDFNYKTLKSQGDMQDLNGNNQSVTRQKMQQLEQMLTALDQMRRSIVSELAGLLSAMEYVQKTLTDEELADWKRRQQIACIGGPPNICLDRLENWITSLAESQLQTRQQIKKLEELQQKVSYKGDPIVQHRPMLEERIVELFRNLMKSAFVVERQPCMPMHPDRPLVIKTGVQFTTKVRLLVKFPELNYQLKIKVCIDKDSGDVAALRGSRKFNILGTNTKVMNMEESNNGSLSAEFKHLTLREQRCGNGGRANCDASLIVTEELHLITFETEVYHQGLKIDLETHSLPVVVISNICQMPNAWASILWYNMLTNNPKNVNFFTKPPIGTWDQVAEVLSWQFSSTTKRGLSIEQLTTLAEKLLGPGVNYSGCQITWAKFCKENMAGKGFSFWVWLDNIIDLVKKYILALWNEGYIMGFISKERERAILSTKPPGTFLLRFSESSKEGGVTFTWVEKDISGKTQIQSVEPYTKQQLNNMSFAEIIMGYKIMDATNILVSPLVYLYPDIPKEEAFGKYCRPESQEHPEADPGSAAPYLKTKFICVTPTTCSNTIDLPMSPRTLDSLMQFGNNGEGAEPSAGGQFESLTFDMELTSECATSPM
Chain of Protein cereblon/Signal transducer and activator of transcription 3 (Homo sapiens) (Q96SW2 whole entry partner): as the sequence (Q96SW2 whole entry) above

Structure (SMILES): O=C1CCC(N2C(=O)c3cccc(OCc4cn(CCCCCC(=O)OCCc5ccc(NC(=O)c6ccc([N+](=O)[O-])o6)cc5)nn4)c3C2=O)C(=O)N1 (centres undefined)
- inhibition [1]: Active
- inhibition [2]: Dose-Dependent Effect
- DC50 [3]: 2.58 µM
- Activity [4]: Dose-Dependent Effect
- Activity [5]: Dose-Dependent Effect
- Activity (Mus musculus [6]): Active
- Activity (Mus musculus [7]): Active
- Activity [8]: inactive
- Activity [9]: inactive
- inhibition [10]: Dose-Dependent Effect
- inhibition [11]: Active
- Activity [12]: Tde
- Activity [13]: Dose-Dependent Effect
- Activity (Mus musculus [14]): Active
- inhibition [15]: Dose-Dependent Effect
- remaining at 24 h, 400 ug/ml [16]: ~66%
- Activity [17]: Dose-Dependent Effect
- Activity [18]: Toxic
- inhibition [19]: Active
- inhibition [20]: Dose-Dependent Effect
- inhibition [21]: Active
- Activity [22]: Dose-Dependent Effect
- Survival (Mus musculus [23]): 100%
- Activity [24]: inactive
